The record followed here is article PMC9030254, “Target Hopping from Protein Kinases to PXR: Identification of Small-Molecule Protein Kinase Inhibitors as Selective Modulators of Pregnane X Receptor from TüKIC Library” (Cells, 2022).

Test in all cases: Kinase profiling
What all share (assay type): biochemical

The target in one experiment is T1, ACK1 (Homo sapiens, UniProt Q07912).
T1 construct: purchased ProQinase (Freiburg, Germany)
How it is done:
(§1) The analysis was performed by ProQinase (Freiburg, Germany).

The next experiment deals with T2, CDC7/DBF4 (Homo sapiens, UniProt O00311).
T2 construct: purchased ProQinase (Freiburg, Germany)
T2 sequence (O00311 whole entry): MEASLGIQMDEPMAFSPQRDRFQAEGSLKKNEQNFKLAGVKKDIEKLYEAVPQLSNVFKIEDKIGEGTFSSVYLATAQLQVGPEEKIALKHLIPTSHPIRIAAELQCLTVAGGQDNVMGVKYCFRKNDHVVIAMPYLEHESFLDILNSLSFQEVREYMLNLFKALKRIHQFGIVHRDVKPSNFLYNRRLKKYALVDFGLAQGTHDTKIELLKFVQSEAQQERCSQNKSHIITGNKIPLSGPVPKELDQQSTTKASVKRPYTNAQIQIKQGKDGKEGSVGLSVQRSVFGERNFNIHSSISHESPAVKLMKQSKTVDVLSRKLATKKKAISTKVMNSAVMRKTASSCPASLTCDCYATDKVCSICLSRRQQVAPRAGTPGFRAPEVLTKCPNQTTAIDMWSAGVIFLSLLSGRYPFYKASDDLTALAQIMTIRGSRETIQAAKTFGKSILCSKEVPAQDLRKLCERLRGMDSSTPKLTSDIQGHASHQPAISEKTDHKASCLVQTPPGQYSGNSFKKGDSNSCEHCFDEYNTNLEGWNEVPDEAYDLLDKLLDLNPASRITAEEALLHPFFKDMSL
T2 sequence (Q9UBU7 whole entry partner): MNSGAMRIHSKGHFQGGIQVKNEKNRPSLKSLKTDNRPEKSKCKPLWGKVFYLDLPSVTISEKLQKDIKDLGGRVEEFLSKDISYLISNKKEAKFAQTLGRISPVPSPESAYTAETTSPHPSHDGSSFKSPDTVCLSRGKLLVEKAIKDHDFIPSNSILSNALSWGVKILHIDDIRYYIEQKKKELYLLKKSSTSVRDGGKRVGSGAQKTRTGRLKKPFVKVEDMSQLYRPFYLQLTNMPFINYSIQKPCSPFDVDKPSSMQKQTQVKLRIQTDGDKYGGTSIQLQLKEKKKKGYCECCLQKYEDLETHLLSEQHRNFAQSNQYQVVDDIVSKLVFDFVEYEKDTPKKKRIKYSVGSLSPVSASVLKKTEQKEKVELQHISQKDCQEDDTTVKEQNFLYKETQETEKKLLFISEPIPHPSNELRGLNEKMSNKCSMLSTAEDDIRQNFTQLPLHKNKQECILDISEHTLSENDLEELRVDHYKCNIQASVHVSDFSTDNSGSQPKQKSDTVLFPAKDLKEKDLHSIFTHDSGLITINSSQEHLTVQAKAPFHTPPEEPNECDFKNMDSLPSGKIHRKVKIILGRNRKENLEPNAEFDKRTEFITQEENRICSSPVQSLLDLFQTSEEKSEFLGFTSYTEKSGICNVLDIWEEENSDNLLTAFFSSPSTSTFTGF
The procedure:
as §1

Another experiment concerns the target T3, CK1gamma3 (Homo sapiens, UniProt Q9Y6M4).
T3 construct: purchased ProQinase (Freiburg, Germany)
The procedure: as §1

The target of another experiment is T4, FGFR3 (Homo sapiens, UniProt P22607).
T4 construct: purchased ProQinase (Freiburg, Germany)
T4 sequence (P22607 23-806): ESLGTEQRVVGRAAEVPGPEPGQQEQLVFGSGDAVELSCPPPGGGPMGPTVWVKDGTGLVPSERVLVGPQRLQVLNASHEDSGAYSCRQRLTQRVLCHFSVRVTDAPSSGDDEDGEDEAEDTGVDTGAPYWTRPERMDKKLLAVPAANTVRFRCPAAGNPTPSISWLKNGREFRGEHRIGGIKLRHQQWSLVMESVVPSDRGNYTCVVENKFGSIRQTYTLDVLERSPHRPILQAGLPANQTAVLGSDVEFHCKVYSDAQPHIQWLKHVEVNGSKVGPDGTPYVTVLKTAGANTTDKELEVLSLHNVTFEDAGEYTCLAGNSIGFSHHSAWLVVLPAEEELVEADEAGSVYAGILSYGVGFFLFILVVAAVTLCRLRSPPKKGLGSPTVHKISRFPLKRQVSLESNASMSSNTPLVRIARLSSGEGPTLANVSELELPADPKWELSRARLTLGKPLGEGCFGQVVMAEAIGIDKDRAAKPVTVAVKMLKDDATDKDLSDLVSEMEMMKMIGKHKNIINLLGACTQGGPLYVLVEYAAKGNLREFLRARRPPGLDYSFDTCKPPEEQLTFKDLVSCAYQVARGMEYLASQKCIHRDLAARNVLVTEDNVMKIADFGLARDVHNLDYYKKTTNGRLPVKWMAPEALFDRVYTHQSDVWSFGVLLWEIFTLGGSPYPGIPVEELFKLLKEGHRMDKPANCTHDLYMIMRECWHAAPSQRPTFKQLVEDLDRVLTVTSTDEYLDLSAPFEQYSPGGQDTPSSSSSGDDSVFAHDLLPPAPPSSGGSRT
How it is done:
as §1

A further experiment concerns the target T5, FLT3 (Homo sapiens, UniProt P36888).
T5 construct: purchased ProQinase (Freiburg, Germany)
T5 sequence (P36888 27-993): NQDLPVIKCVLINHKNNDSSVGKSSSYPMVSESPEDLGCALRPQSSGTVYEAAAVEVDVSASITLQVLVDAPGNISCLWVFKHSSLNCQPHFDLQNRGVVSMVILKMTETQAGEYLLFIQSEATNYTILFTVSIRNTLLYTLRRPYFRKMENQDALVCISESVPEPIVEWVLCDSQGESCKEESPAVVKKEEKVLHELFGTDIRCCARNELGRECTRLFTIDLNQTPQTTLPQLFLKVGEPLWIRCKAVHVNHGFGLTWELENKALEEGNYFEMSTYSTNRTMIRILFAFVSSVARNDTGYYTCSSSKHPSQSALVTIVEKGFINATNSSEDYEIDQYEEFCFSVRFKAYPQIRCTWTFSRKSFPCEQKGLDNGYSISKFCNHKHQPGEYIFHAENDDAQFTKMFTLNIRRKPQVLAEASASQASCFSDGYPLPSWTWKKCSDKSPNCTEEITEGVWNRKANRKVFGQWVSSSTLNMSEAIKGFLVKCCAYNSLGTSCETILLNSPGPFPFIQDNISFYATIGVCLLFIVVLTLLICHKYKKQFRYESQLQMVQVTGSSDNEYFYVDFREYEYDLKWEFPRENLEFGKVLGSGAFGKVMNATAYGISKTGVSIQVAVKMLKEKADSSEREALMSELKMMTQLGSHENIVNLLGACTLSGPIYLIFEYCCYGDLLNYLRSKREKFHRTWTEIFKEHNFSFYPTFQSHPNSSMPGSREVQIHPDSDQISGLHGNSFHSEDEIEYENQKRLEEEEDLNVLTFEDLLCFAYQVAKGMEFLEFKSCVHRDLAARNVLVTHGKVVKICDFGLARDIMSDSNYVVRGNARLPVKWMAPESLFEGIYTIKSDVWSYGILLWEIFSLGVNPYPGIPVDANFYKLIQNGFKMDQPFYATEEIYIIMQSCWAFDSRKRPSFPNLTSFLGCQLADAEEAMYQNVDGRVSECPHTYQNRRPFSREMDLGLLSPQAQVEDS
The procedure: as §1

For a further experiment, the target named is T6, MERTK (Homo sapiens, UniProt Q12866).
T6 construct: purchased ProQinase (Freiburg, Germany)
T6 sequence (Q12866 21-999): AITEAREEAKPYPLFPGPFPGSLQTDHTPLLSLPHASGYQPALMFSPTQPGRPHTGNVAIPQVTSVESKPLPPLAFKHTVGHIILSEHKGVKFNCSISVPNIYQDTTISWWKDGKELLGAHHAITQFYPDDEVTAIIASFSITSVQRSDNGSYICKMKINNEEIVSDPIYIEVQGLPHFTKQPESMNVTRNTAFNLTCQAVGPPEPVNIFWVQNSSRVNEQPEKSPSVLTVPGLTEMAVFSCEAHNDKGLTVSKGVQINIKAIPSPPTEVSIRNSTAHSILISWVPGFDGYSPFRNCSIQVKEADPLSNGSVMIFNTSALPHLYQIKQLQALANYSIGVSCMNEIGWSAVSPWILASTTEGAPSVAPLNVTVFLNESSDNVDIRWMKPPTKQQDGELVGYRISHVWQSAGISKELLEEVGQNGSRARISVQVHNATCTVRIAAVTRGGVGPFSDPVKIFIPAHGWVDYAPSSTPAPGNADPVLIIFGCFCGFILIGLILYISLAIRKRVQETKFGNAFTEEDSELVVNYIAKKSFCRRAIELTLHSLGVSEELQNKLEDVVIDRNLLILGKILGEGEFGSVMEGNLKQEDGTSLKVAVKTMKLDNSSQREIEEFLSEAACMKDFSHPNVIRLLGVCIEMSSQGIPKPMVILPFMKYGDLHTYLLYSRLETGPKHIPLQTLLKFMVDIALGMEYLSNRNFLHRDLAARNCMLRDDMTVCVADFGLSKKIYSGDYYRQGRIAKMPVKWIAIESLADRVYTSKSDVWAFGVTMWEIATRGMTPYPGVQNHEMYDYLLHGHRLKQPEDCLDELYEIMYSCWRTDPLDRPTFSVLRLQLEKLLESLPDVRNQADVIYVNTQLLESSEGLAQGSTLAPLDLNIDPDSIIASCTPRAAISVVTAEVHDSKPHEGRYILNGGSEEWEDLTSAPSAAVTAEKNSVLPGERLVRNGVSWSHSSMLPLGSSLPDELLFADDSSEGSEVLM
How it is done:
as §1

The next experiment addresses T7, SNARK (Homo sapiens, UniProt Q9H093).
T7 construct: purchased ProQinase (Freiburg, Germany)
T7 sequence (Q9H093 1-628): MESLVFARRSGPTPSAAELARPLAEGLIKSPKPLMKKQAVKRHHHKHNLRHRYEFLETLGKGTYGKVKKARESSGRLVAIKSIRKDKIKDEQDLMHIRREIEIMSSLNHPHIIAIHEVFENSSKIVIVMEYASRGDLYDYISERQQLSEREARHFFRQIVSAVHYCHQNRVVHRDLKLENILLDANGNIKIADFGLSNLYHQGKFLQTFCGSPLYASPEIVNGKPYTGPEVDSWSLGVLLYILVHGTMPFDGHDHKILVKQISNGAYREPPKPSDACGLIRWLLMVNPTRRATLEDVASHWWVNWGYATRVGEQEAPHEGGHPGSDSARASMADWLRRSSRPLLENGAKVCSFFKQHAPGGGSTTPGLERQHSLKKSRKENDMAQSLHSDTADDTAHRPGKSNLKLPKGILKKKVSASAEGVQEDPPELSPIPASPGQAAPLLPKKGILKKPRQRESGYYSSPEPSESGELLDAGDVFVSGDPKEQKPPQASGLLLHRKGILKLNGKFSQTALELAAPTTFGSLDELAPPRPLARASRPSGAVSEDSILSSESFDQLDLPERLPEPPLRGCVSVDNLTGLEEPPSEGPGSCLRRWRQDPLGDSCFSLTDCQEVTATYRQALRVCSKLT
How it is done:
as §1

A further experiment has as its target T8, SRC (Homo sapiens, UniProt P12931).
T8 construct: purchased ProQinase (Freiburg, Germany)
The procedure: as §1

T1 sequence (Q07912 whole entry): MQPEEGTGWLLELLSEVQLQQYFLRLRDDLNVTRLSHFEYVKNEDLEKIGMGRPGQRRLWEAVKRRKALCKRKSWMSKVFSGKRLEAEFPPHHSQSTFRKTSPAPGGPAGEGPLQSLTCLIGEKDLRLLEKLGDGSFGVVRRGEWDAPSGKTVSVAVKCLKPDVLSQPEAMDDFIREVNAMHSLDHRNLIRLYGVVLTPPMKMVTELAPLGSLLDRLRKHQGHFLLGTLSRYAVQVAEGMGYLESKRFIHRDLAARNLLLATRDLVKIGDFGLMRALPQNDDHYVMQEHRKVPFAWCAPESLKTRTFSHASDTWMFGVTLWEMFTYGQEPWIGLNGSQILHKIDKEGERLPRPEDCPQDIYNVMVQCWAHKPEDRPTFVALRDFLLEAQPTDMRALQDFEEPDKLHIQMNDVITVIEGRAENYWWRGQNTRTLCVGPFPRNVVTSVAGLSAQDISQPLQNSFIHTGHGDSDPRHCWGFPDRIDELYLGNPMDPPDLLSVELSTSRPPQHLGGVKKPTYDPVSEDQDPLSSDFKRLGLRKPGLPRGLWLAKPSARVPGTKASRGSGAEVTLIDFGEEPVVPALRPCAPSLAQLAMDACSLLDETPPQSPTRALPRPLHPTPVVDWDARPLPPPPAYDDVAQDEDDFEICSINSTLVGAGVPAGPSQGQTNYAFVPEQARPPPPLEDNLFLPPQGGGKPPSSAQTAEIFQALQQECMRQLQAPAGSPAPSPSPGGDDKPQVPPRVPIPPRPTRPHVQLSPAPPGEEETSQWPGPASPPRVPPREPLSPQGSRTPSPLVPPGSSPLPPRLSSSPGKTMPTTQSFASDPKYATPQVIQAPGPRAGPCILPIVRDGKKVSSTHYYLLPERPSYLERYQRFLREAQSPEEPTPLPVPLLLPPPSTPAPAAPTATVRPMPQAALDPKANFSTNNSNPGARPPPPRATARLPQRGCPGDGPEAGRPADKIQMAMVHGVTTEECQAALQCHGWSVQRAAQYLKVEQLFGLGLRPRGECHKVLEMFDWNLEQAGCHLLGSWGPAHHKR
T8 sequence (P12931 whole entry): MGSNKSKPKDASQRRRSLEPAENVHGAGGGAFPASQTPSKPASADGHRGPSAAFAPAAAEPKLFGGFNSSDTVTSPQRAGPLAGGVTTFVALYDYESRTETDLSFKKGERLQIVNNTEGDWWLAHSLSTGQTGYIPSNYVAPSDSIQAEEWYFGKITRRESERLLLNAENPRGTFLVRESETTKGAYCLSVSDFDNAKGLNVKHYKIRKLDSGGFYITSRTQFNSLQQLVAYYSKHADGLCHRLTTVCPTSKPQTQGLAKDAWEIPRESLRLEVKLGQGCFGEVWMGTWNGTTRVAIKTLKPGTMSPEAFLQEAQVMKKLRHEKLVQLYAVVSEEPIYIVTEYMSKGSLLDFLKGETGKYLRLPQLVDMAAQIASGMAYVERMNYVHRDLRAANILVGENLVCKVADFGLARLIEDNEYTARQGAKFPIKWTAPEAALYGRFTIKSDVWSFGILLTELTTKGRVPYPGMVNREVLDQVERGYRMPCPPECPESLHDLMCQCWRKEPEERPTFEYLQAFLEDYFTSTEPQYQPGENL
T3 sequence (Q9Y6M4 whole entry): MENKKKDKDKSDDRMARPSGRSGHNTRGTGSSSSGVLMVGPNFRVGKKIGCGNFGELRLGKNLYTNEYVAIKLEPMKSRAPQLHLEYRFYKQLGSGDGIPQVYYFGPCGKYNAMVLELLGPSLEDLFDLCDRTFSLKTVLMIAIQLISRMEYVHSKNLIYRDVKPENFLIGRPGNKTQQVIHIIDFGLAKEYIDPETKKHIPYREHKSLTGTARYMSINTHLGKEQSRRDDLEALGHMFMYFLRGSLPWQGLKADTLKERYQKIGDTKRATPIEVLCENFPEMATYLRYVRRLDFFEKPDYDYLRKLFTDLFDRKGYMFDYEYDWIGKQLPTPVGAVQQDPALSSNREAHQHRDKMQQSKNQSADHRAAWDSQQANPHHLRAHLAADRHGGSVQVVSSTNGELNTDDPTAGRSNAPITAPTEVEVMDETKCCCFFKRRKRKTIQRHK

Turning to `O=C(Nc1ccc(F)c(Nc2ccc3c(c2)CCCCC3=O)c1)c1cccc(F)c1` [Compound 109], the Residual activity on ACK1 (1.0E-05 M) is given as 89 % of control; at ACK1 (1.0E-06 M), 96 % of control; at CDC7/DBF4 (1.0E-05 M) it was 91 % of control; at CDC7/DBF4 (1.0E-06 M) it was 96 % of control; at CK1gamma3 (1.0E-05 M), 32 % of control; on CK1gamma3 (1.0E-06 M), 79 % of control. In addition, the Residual activity on FGFR3 (1.0E-05 M) is listed as 95 % of control; on FGFR3 (1.0E-06 M), 110 % of control; at FLT3 (1.0E-05 M) it was 91 % of control; on FLT3 (1.0E-06 M) it was 98 % of control; on MERTK (1.0E-05 M), 85 % of control; on MERTK (1.0E-06 M), 101 % of control. Further, the Residual activity is given as 98 % of control at SNARK (1.0E-05 M), 105 % of control on SNARK (1.0E-06 M), 100 % of control on SRC (1.0E-05 M) and 107 % of control at SRC (1.0E-06 M). Also, the inhibition (usually the relative decrease from the control value, in per cent) at 10 µM at CK1gamma3 (10 µM, read-out: inhibition of CK1-γ3) is no less than 50%.

Regarding `O=C(Cc1ccccc1)Nc1ccc(F)c(Nc2ccc3c(c2)CCCCC3=O)c1` [Compound 100], the Residual activity at ACK1 (1.0E-05 M) is on record as 92 % of control; at ACK1 (1.0E-06 M), 112 % of control; at CDC7/DBF4 (1.0E-05 M), 93 % of control; on CDC7/DBF4 (1.0E-06 M), 98 % of control; on CK1gamma3 (1.0E-05 M) it was 105 % of control; at CK1gamma3 (1.0E-06 M) it was 101 % of control. For the same compound, the Residual activity at FGFR3 (1.0E-05 M) is recorded as 76 % of control; on FGFR3 (1.0E-06 M), 98 % of control; at FLT3 (1.0E-05 M), 94 % of control; on FLT3 (1.0E-06 M) it was 101 % of control; at MERTK (1.0E-05 M), 73 % of control; at MERTK (1.0E-06 M) it was 103 % of control. Further, the Residual activity on SNARK (1.0E-05 M) is 92 % of control; at SNARK (1.0E-06 M), 107 % of control; on SRC (1.0E-05 M), 105 % of control; on SRC (1.0E-06 M), 117 % of control.
